Values joined by “and” are separate entries in the source; they are usually repeats but may differ in a detail not shown here. Equal entries are not always repeated.
Columns and labels:
[1] = Log P=log([solute]octanol/[solute]water), un-ionized compound; cited from earlier work
cholinesterase (ChE) = conditions: human whole blood diluted 10 times, acetylthiocholine 1.8 mg/mL, 5 min incubation in capillary, room temperature
Method: For testing of a particular solvent, 5 μL blood sample (diluted) was injected into the capillary with the extraction solvent plug immediately after the mixing the acetylthiocholine into the blood. After the 5 min incubation in capillary, the TCh/ATch ratio was measured using SFME nanoESI MS. For the control, 5 min after the mixing acetylthiocholine into the diluted blood, the sample was taken and analyzed immediately using SFME nanoESI MS with ethyl acetate as the extraction phase. Spray voltage of 1.5 kV was used for nanoESI.
SFME-nanoESI was applied for monitoring the enzymatic activity of cholinesterase (ChE) in whole blood samples. […] The blood sample was diluted 10 times to slow down the reaction rate as well as to facilitate the slug flows for SFME. The substrate acetylthiocholine iodine was added into the diluted blood sample at a concentration of 1.8 mg/mL, and then 5 μL sample was taken immediately and injected into the capillary with 5 μL extraction phase. The capillary with the sample and the extraction solvent was left in room temperature 25° C. for incubation. The SFME-nanoESI could be performed repeatedly on the same sample and the ratio of the substrate ATCh and the reaction product TCh could be monitored as a function of time to characterize the enzymatic activity of the ChE. […]

| Structure (SMILES) | Partition coefficient Log P [1] | reduction of ChE activity due to contact with extraction solvent (cholinesterase (ChE)) |
| --- | --- | --- |
| CN1[C@H]2CC[C@@H]1[C@@H](C(=O)O)[C@@H](OC(=O)c1ccccc1)C2 [benzoylecgonine] | −0.6 and −0.59 |  |
| ClC(Cl)Cl [chloroform] |  | more than 60% |
| CCOC(C)=O [ethyl acetate] |  | minimal |
| CN[C@@H](C)Cc1ccccc1 [methamphetamine] | 2.1 |  |
| N[C@@H](Cc1ccccc1)C(=O)O [phenylalanine] | −1.38 |  |

From US10559456B2, “Systems and methods for analyzing an extracted sample using an immiscible extraction solvent” (priority 2014, dated 2020)
